Read-outs that look alike come from different tables or passages of the source.
Assays:
HCT-116 = experiment: NCI60 antiproliferative screen, colon HCT-116; type: cell-based, human; details: HCT-116, 48 h, sulforhodamine B, read-out: Cytotoxicity (GI50) Colon HCT-116
Protocol: (§1) All of the indenoisoquinolines were tested for antiproliferative activity in the National Cancer Institute's 60 cell line screen (NCI60). The cells were incubated with the tested compounds at 100, 10, 1, 0.1, and 0.01 μM concentrations for 48 h before treatment with sulforhodamine B dye. Optical densities were recorded, and their ratios relative to that of the control were plotted as percentage growth against the log 10 of the tested compound concentrations. The concentration that corresponds to 50% growth inhibition (GI50) is calculated by interpolation between the points located above and below the 50% percentage growth. The mean-graph midpoint (MGM) is an estimated average of the GI50 values derived from the NCI collection of 60 human cancer cell lines, where during the MGM calculation, anticancer agents with GI50 values that are outside the testing range of 0.01-100 μM are arbitrarily assigned the values of 0.01 and 100 μM, respectively. […] Also, the GI50 values of many of the substances vs. individual human cancer cell lines are below the lowest concentration used (0.01 μM) in the standard NCI testing protocol. […] For example, the MGM cytotoxicity values of 9, 15-17, and 19 are all very close to each other, but the Top1 inhibitory activities range from +++(+) to 0.

HOP-62 = experiment: NCI60 antiproliferative screen, lung HOP-62; type: cell-based, human; details: HOP-62, 48 h, sulforhodamine B, read-out: Cytotoxicity (GI50) lung HOP-62
Protocol: as §1

OVCAR-3 = experiment: NCI60 antiproliferative screen, ovarian OVCAR-3; type: cell-based, human; details: OVCAR-3, 48 h, sulforhodamine B, read-out: Cytotoxicity (GI50) Ovarian OVCAR-3
Protocol: as §1

SF-539 = experiment: NCI60 antiproliferative screen, CNS SF-539; type: cell-based, human; details: SF-539, 48 h, sulforhodamine B, read-out: Cytotoxicity (GI50) CNS SF-539
Protocol: as §1

MCF-7 = experiment: NCI60 antiproliferative screen, breast MCF-7; type: cell-based, human; details: MCF-7, 48 h, sulforhodamine B, read-out: Cytotoxicity (GI50) breast MCF-7
Protocol: as §1

SN12C = experiment: NCI60 antiproliferative screen, renal SN12C; type: cell-based, human; details: 48 h, sulforhodamine B, read-out: Cytotoxicity (GI50) renal SN12C
Protocol: as §1

UACC-62 = experiment: NCI60 antiproliferative screen, melanoma UACC-62; type: cell-based, human; details: UACC-62, 48 h, sulforhodamine B, read-out: Cytotoxicity (GI50) melanoma UACC-62
Protocol: as §1

Human recombinant Top1 = biological target: T1, Human recombinant Top1 (Homo sapiens, UniProt P11387); experiment: Top1-mediated DNA cleavage assay; type: biochemical; parameters: key to Top1 inhibitory activity (level): 0, no detectable activity; +, weak activity; ++, similar activity to compound 4; +++, greater activity than 4; ++++, equipotent with 1; ++(+) would be between ++ and +++; key to Top 1 Cleavage: 0, no inhibitory activity; +, between 20 and 50% activities; ++, between 50 and 75% activity; +++, between 75 and 95% activity; ++++, equipotent; details: for Top1 inhibitory activity (level): scored relative to compounds 1 and 4; for Top 1 Cleavage: graded relative to 1 μM camptothecin
T1 construct: made in house
T1 sequence (P11387 1-765): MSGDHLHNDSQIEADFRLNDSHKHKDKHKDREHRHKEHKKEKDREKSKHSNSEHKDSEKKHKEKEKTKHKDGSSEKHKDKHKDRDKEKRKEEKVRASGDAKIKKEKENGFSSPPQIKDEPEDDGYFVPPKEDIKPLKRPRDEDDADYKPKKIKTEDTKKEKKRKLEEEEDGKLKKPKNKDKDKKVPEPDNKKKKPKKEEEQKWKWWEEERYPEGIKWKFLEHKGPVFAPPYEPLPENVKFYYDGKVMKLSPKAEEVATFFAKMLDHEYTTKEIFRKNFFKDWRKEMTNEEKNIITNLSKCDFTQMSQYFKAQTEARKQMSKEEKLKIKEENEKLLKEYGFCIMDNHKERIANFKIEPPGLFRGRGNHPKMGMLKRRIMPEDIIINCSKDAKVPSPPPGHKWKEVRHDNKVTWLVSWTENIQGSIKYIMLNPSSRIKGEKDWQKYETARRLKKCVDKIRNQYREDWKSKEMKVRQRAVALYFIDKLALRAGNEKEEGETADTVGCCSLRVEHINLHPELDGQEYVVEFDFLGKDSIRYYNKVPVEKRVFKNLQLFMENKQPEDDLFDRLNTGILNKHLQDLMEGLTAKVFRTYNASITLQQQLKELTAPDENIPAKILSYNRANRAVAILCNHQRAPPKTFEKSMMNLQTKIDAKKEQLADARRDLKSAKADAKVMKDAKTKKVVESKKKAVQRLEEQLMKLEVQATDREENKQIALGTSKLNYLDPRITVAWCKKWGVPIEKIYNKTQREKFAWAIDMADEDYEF
Protocol: All of the new indenoisoquinoline derivatives were tested in Top1-mediated DNA cleavage assays. For this purpose, a ^32P 3′-end labeled 117-bp DNA fragment was incubated with Top1 at four concentrations of a tested compound. The DNA fragments were separated on 20% PAGE denaturing gels. The Top1 inhibitory activities were assigned on the basis of the visual inspection of the number and intensities of the gel bands corresponding to Top1-mediated DNA cleavage fragments and scored relative to the Top1 inhibitory activity of compounds 1 and 4. Results are expressed in semiquantitative fashion: 0, no detectable activity; +, weak activity; ++, similar activity to compound 4; +++, greater activity than 4; ++++, equipotent with 1. Ambiguous scores (e.g., between two values) are designated with parentheses (e.g., ++(+) would be between ++ and +++). […] After conversion of the hydroxyl to a dimethylcarbamate, the observed Top1 inhibitory activity increased from ++(+) for compound 8 to +++ for compound 10. Introduction of an acetyl group at the 0-2 position yielded compound 11, which was also a Top1 poison with activity at the ++ level. Subsequently, several hydrophobic substituents were attached to the 0-2 position.
Topoisomerase I-Mediated DNA Cleavage Reactions.
Human recombinant Top1 was purified from baculovirus as previously described (Morrell, A., et al., J. Med. Chem. 2007, 50, 2040-2048). DNA cleavage reactions were prepared as previously reported with the exception of the DNA substrate (Strumberg, D., et al., J. Med. Chem. 1999, 42, 446-457). Briefly, a 117-bp DNA oligonucleotide (Integrated DNA Technologies) encompassing the previously identified Top1 cleavage sites in the 161-bp fragment from pBluescript SK(−) phagemid DNA was employed. This 117-bp oligonucleotide contains a single 5′-cytosine overhang, which was 3′-end-labeled by fill-in reaction with [α-^32P]dGTP in React 2 buffer (50 mM Tris-HCl, pH 8.0, […], 50 mM NaCl) with 0.5 unit of DNA polymerase I (Klenow fragment, New England BioLabs). Unincorporated [^32P]dGTP was removed using mini Quick Spin DNA columns (Roche, Indianapolis, Ind.), and the eluate containing the 3′-end-labeled DNA substrate was collected. Approximately 2 nM radiolabeled DNA substrate was incubated with recombinant Top1 in 20 μL of reaction buffer [10 mM Tris-HCl (pH 7.5), 50 mM KCl, 5 mM MgCl2, 0.1 mM EDTA, and 15 μg/mL BSA] at 25° C. for 20 min in the presence of various concentrations of compounds. The reactions were terminated by adding SDS (0.5% final concentration) followed by the addition of two volumes of loading dye (80% formamide, 10 mM sodium hydroxide, 1 mM sodium EDTA, 0.1% xylene cyanol, and 0.1% bromophenol blue). Aliquots of each reaction mixture were subjected to 20% denaturing PAGE. Gels were dried and visualized by using a phosphoimager and ImageQuant software (Molecular Dynamics). For simplicity, cleavage sites were numbered as previously described in the 161-bp fragment.

[1] = system: all human cancer cell lines successfully tested (NCI60); experiment: NCI60 mean graph midpoint for growth inhibition; type: cell-based; details: for mean GI50 across NCI60 cell lines (MGM): all human cancer cell lines successfully tested, ± standard error, read-out: MGM (mean graph midpoint for growth inhibition)
Protocol: as §1

DU-145 = experiment: NCI60 antiproliferative screen, prostate DU-145; type: cell-based, human; details: DU-145, 48 h, sulforhodamine B, read-out: Cytotoxicity (GI50) prostate DU-145
Protocol: as §1

SMILES	GI50 (HCT-116; Homo sapiens) [nM]	GI50 (HOP-62; Homo sapiens) [nM]	GI50 (OVCAR-3; Homo sapiens) [nM]	GI50 (SF-539; Homo sapiens) [nM]	GI50 (MCF-7; Homo sapiens, MCF7) [nM]	GI50 (SN12C; Homo sapiens) [nM]	GI50 (UACC-62; Homo sapiens) [nM]	Top1 inhibitory activity (level) (Human recombinant Top1)	mean GI50 across NCI60 cell lines (MGM) [1] [nM]	GI50 (DU-145; Homo sapiens) [nM]	GI50 (HCT-116) [nM]	GI50 (HOP-62) [nM]	GI50 (OVCAR-3) [nM]	GI50 (SF-539) [nM]	GI50 (MCF-7) [nM]	GI50 (SN12C) [nM]	GI50 (UACC-62) [nM]	Top 1 Cleavage (Human recombinant Top1)	cytotoxicity relative to parent compound (in words) ([1]; NCI60)	GI50 (DU-145) [nM]	also measured
COc1cc2c(=O)n(CCCN3CCOCC3)c3c(c2cc1O)C(=O)c1cc2c(cc1-3)OCO2 [Compound 8]	279	257	871	335	144	195	282	++(+)	412	257											
COc1cc2c3c(n(CCCN4CCOCC4)c(=O)c2cc1O)-c1cc2c(cc1C3=O)OCO2 [Compound 9]	20	10	30	< 10	< 10	< 10	< 10		76 ± 28	< 10											
COc1cc2c(=O)n(CCCN3CCOCC3)c3c(c2cc1OC(C)=O)C(=O)c1cc2c(cc1-3)OCO2 [Compound 11, 3-Methoxy-6-(3-morpholinopropyl)-5,12-dioxo-6,12-dihydro-5H-[1,3]dioxolo[4′,5′:5,6]indeno[1,2-c]isoquinolin-2-yl Acetate]								++	43 ± 19		29	18	138	< 10	< 10	< 10	18	++ (++, between 50 and 75% activity)	greater than the parent 8 by a factor of almost one order of magnitude	< 10	
COC(=O)CCC(=O)Oc1cc2c3c(n(CCCN4CCOCC4)c(=O)c2cc1OC)-c1cc2c(cc1C3=O)OCO2 [Compound 12, 3-Methoxy-6-(3-morpholinopropyl)-5,12-dioxo-6,12-dihydro-5H-[1,3]dioxolo[4′,5′:5,6]indeno[1,2-c]isoquinolin-2-yl Methyl Succinate]								+	49 ± 8		14	< 10	66	< 10	< 10	< 10	< 10	+ (+, between 20 and 50% activities)	greater than the parent 8 by a factor of almost one order of magnitude	< 10	
COc1cc2c(=O)n(CCCN3CCOCC3)c3c(c2cc1OC(=O)c1ccccc1)C(=O)c1cc2c(cc1-3)OCO2 [Compound 13, 3-Methoxy-6-(3-morpholinopropyl)-5,12-dioxo-6,12-dihydro-5H-[1,3]dioxolo[4′,5′:5,6]indeno[1,2-c]isoquinolin-2-yl Benzoate]								+	1500 ± 170		850	79	4570	37	33	54	96	+ (+, between 20 and 50% activities)	significantly less cytotoxic than their respective parent compounds	51	Top1 inhibitory activity (in words) (Human recombinant Top1): weak Top1 poisons; GI50's against various cell lines (range in words) ([1]; NCI60): micromolar range
COc1cc2c3c(n(CCCN4CCOCC4)c(=O)c2cc1OC(C)=O)-c1cc2c(cc1C3=O)OCO2 [Compound 16, 2-Methoxy-6-(3-morpholinopropyl)-5,12-dioxo-6,12-dihydro-5H-[1,3]dioxolo[4′,5′:5,6]indeno[1,2-c]isoquinolin-3-yl Acetate]									95 ± 45		< 10	< 10	269	< 10	< 10	< 10	< 10	0		< 10	
